Legend:
[1] = test system: Serratia marcescens; assay: Antibacterial activity against Serratia marcescens assessed as inhibition of bacterial growth measured after 96 hrs relative to control; type: functional
[2] = test system: Serratia marcescens; assay: Antibacterial activity against Serratia marcescens assessed as inhibition of bacterial growth measured after 168 hrs relative to control; type: functional

With `COc1cc(C=O)ccc1O` [VANILLIN] as the compound, how does the “inhibition (INH)” value [1] read?
Its value is 0.3%.

And the “inhibition (INH)” value [2]?
Its value is 0.4%.
